From patent publication US5665719A, “Benzoxazinone and benzopyrimidinone piperidinyl tocolytic oxytocin receptor antagonists” (Merck & Co., Inc., priority 1995, dated 1997)
pIC50: −log10 of the molar value.

molecular target: T1, uterine OT receptors (Rattus norvegicus, UniProt P70536); assay: [3H]Oxytocin (OT) radioligand binding to uterine OT receptors, crude uterine membranes from DES-treated rats; conditions: not given
T1 construct: from tissue; host or cells: uterus of diethylstilbestrol dipropionate (DES)-treated rats, crude membrane preparation
T1 sequence (P70536 1-388): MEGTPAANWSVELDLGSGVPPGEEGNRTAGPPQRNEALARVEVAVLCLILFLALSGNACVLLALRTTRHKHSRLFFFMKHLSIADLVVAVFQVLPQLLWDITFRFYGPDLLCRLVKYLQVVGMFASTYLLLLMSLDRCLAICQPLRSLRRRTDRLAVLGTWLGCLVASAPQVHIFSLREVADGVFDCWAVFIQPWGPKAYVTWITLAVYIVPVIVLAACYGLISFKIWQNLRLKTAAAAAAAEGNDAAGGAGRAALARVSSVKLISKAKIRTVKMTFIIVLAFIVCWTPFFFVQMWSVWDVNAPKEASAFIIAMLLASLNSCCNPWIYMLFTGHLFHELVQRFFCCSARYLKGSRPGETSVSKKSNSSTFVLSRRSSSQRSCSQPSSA
Method: Competition studies were conducted at equilibrium (60 minutes; 22° C.) using 1 nM[^3 H]OT in the following assay buffer: 50 mM Tris-HCl, 5 mM MgCl2, and 0.1% BSA, pH 7.4. Nonspecific binding (10% of the total binding) was determined using 1 μM unlabeled OT and the binding reaction was terminated by filtration through glass fiber filters using a cell harvester (model 7019, Skatron, Inc., Sterling, Va.).
IC50 values were determined for the [^3 H]OT and [^3 H]AVP binding assays by linear regression of the relation log concentration of compound vs. percent inhibition of specific binding. Data is either reported as a given percentage of inhibition at a specified concentration,or if an IC50 was calculated, as a nanomolar concentration.

In order of falling pIC50:
1. CCN(CC)CCS(=O)(=O)N1CCC(Oc2ccc(C(=O)N3CCC(N4C(=O)OCc5ccccc54)CC3)c(OC)c2)CC1 [Example 46, 1-(1-(4-(1-(Diethylaminoethylsulfonyl)-4-piperidinyloxy)-2-methoxybenzoyl)piperidin-4-yl)-1,2-dihydro-4(H)-3,1-benzoxazin-2-one]  7.64
2. COc1cc(OC2CCN(S(=O)(=O)CCCN(C)C3CC3)CC2)ccc1C(=O)N1CCC(N2C(=O)OCc3ccccc32)CC1 [Example 66, 1-(1-(4-(1-((3-N-Cyclopropyl-N-methylamino)propylsulfonyl)piperidin-4-yloxy)-2-methoxybenzoyl)piperidin-4-yl)-1,2-dihydro-4(H)-3,1-benzoxazin-2-one]  7.60
3. COc1cc(OC2CCN(C(=O)Cc3cnc[nH]3)CC2)ccc1C(=O)N1CCC(N2C(=O)OCc3ccccc32)CC1 [Example 45, 1-(1-(4-(1-(4(5)-Imidazolylacetyl)-4-piperidinyloxy)-2-methoxybenzoyl)piperidin-4-yl)-1,2-dihydro-4(H)-3,1-benzoxazin-2-one]  7.36
4. COc1cc(OCCCNC(=O)C2CCNCC2)c(Cl)cc1C(=O)N1CCC(N2C(=O)OCc3ccccc32)CC1 [Example 15, 1-(1-(4-(3-(4-Piperidinylcarbonylamino)propoxy)-6-methoxy-3-chlorobenzoyl)piperidin-4-yl)-1,2-dihydro-4(H)-3,1-benzoxazin-2-one]  7.25
5. COc1cc(OC2CCN(C(=O)CCCN)CC2)ccc1C(=O)N1CCC(N2C(=O)OCc3ccccc32)CC1 [Example 30, 1-(1-(4-(1-(4-Aminobutanoyl)-4-piperidinyloxy)-2-methoxybenzoyl)piperidin-4-yl)-1,2-dihydro-4(H)-3,1-benzoxazin-2-one]  7.16
6. COc1cc(OCCCNC(=O)C2CCNCC2)ccc1C(=O)N1CCC(N2C(=O)OCc3ccccc32)CC1 [Example 14, 1-(1-(4-(3-(4-Piperidinylcarbonylamino)propoxy)-2-methoxybenzoyl)piperidin-4-yl)-1,2-dihydro-4(H)-3,1-benzoxazin-2-one]  7.13
7. COc1cc(OCCCNS(C)(=O)=O)ccc1C(=O)N1CCC(N2C(=O)OCc3ccccc32)CC1 [Example 17, 1-(1-(4-(3-((Methylsulfonyl)amino)propoxy)-2-methoxybenzoyl)piperidin-4-yl)-1,2-dihydro-4(H)-3,1-benzoxazin-2-one]  7.09
8. COc1cc(OCCCN2C(=O)CN(C)C2=O)ccc1C(=O)N1CCC(N2C(=O)OCc3ccccc32)CC1 [Example 22, 1-(1-(4-(3-(1-Methylimidazoline-2,4-dione-3-yl)propoxy)-2-methoxybenzoyl)piperidin-4-yl)-1,2-dihydro-4(H)-3,1-benzoxazin-2-one]  6.59
9. O=C(Nc1ccc(CC(=O)N2CCC(N3C(=O)OCc4ccccc43)CC2)cc1)c1ccc2[nH]cnc2c1 [Example 9, 1-(1-(4-((5-Benzimidazolylcarbonyl)amino)phenylacetyl)piperidin-4-yl)-1,2-dihydro-4(H)-3,1-benzoxazin-2-one]  6.55
10. CCOC(=O)CN1CCC(Oc2ccc(C(=O)N3CCC(N4C(=O)OCc5ccccc54)CC3)c(OC)c2)CC1 [Example 48, 1-(1-(4-(1-(Ethoxycarbonylmethyl)-4-piperidinyloxy)-2-methoxybenzoyl)piperidin-4-yl)-1,2-dihydro-4(H)-3,1-benzoxazin-2-one]  6.47
11. COc1cc(OCCCN)ccc1C(=O)N1CCC(N2C(=O)OCc3ccccc32)CC1 [Example 12, 1-(1-(4-(3-Aminopropoxy)-2-methoxybenzoyl)piperidin-4-yl)-1,2-dihydro-4(H)-3,1-benzoxazin-2-one]  6.39
12. CC(=O)N(C)CCCOc1ccc(C(=O)N2CCC(N3C(=O)OCc4ccccc43)CC2)cc1 [Example 24, 1-(1-(4-(3-(N-Methyl(acetylamino))propoxy)benzoyl)piperidin-4-yl)-1,2-dihydro-4(H)-3,1-benzoxazin-2-one]  6.26
13. O=C(c1ccc(OC2CCNCC2)cc1Cl)N1CCC(N2C(=O)OCc3ccccc32)CC1 [Example 52, 1-(1-(4-(4-Piperidinyloxy)-2-chlorobenzoyl)piperidin-4-yl)-1,2-dihydro-4(H)-3,1-benzoxazin-2-one]  5.37
14. COc1ccc(C(=O)N2CCC(N3C(=O)OCc4ccccc43)CC2)c([N+](=O)[O-])c1 [Example 44, 1-(1-(4-Methoxy-2-nitrobenzoyl)piperidin-4-yl)-1,2-dihydro-4(H)-3,1-benzoxazin-2-one]  5.30
15. O=C(/C=C/c1ccccc1)N1CCC(N2C(=O)OCc3ccccc32)CC1 [Example 7, 1-(1-(Cinnamoyl)piperidin-4-yl)-1,2-dihydro-4(H)-3,1-benzoxazin-2-one]  5.21
16. COc1ccc(C(=O)N2CCC(N3C(=O)Cc4ccccc43)CC2)c(OC)c1 [Example 55, 1-(1-(2,4-dimethoxybenzoyl)-4-piperidyl)indol-2-one]  5.21

same assay, conditions: competition vs 1 nM [3H]OT, 60 minutes, 22° C., pH 7.4, rat uterus membranes; read-out: Result For [3H]OT (IC50)

With `COc1ccc(C(=O)N2CCC(N3C(=O)OCc4sccc43)CC2)c(OC)c1` [Example 63, 1-(1-(2,4-dimethoxybenzoyl)piperidin-4-yl)-1,2-dihydro-4 (H)-3,1-thienoxazin-2-one] the pIC50 was 6.23.

same assay, conditions: inhibition at 1,000 nM; 1 nM [3H]OT, 60 minutes, 22° C., pH 7.4; read-out: Result For [3H]OT (% inhib. at 1,000 nM)

In order of rising inhibition at 1 µM:
1. COc1cc(OC2CCN(C(=O)OC(C)(C)C)CC2)ccc1C(=O)N1CCC(N2C(=O)COc3ccccc32)CC1 [Example 41, 4-(1-(4-(4-(1-t-Butyloxycarbonyl)piperidinyloxy)-2-methoxybenzoyl)piperidin-4-yl)-(2H)-1,4-benzoxazin-3(4H)-one]  42%
2. COc1cc(C(=O)N2CCN(C(=O)OC(C)(C)C)CC2)ccc1C(=O)N1CCC(N2C(=O)OCc3ccccc32)CC1 [Example 39, 1-(1-(4-(4-(t-Butyloxycarbonyl)piperazin-1-ylcarbonyl)-2-methoxybenzoyl)piperidin-4-yl)-1,2-dihydro-4(H)-3,1-benzoxazin-2-one]  46%
3. Cc1cc(OC2CCN(C(=O)OC(C)(C)C)CC2)ccc1C(=O)N1CCC(N2C(=O)OCc3ccccc32)CC1 [Example 43, 1-(1-(4-(N-t-Butoxycarbonyl-4-piperidinyloxy)-2-methylbenzoyl)piperidin-4-yl)-1,2-dihydro-4(H)-3,1-benzoxazin-2-one]  59%
4. CC(C)(C)OC(=O)N1CCC(C(=O)NCCCOc2ccc(C(=O)N3CCC(N4C(=O)OCc5ccccc54)CC3)c(O)c2)CC1 [Example 49, 1-(1-(4-(3-(N-t-Butyloxycarbonylpiperidin-4-ylcarbonylamino)propoxy)-2-hydroxybenzoyl)piperidin-4-yl)-1,2-dihydro-4(H)-3,1-benzoxazin-2-one]  72%

same assay, conditions: inhibition at 10,000 nM; 1 nM [3H]OT, 60 minutes, 22° C., pH 7.4; read-out: Result For [3H]OT (% inhib. at 10,000 nM)

In order of rising inhibition at 10 µM:
1. O=C(c1ccccn1)N1CCC(N2C(=O)OCc3ccccc32)CC1 [Example 3]  40%
2. COc1ccc(C(=O)N2CCC(N3C(=O)N(C)Cc4ccccc43)CC2)c(OC)c1 [Example 36, 1-(2,4-Dimethoxybenzoylpiperidin-4-yl)-3,4-dihydro-3-methylquinazolin-2(1H)-one]  48%
3. COc1ccc(C(=O)N2CC(N3C(=O)OCc4ccccc43)C2)c(OC)c1 [Example 57, 1-(1-(2,4-Dimethoxybenzoyl)azetidin-3-yl)-1,2-dihydro-4(H)-3,1-benzoxazin-2-one]  54%
4. COc1cc(OC)c(C(=O)N2CCC(N3C(=O)OCc4ccccc43)CC2)c(OC)c1 [Example 1]  61%
5. COc1ccc(C(=O)N2CCC(N3C(=O)OC(C)(C)c4ccccc43)CC2)c(OC)c1 [Example 61, 1-(1-(2,4-dimethoxybenzoyl)piperidin-4-yl)-4,4-dimethyl-1,2-dihydro-4(H)-3,1-benzoxazin-2-one]  64%
6. COc1ccc(C(=O)N2CCC(N3C(=O)OCc4ccccc43)CC2C#N)c(OC)c1 (centres unmarked) [Example 60, 1-(1-(2,4-dimethoxybenzoyl)-2-cyanopiperidin-4-yl)-1,2-dihydro-4(H)-3,1-benzoxazin-2-one]  70%
7. O=C(c1ccc(OCC2CCCNC2)cc1)N1CCC(N2C(=O)OCc3ccccc32)CC1 (centres unmarked) [Example 32, 1-(1-(4-(3-Piperidinylmethoxy)benzoyl)piperidin-4-yl)-1,2-dihydro-4(H)-3,1-benzoxazin-2-one]  78%
8. O=C(c1cc2ccccc2[nH]1)N1CCC(N2C(=O)OCc3ccccc32)CC1 [Example 4]  78%
